Format in all cases: in vivo
The subject of one assay is Alternaria solani. Nature of the assay: Activity against early blight of tomato caused by Alternaria solani (protective spray on potted tomato plants). The following applies: read after 5 days. On the procedure: (§1) The active compounds, separately or jointly, were prepared as a stock solution comprising 25 mg of active compound which was made up to 10 ml using a mixture of acetone and/or dimethyl sulfoxide and the emulsifier Uniperol® EL (wetting agent having an emulsifying and dispersing action based on ethoxylated alkylphenols) in a ratio by volume of solvent/emulsifier of 99:1. The mixture was then made up to 100 ml with water. This stock solution was diluted with the solvent/emulsifier/water mixture described to give the concentration of active compound stated below.
(§2) Alternatively, the active compounds epoxiconazole and pyraclostrobin were used as a commercial formulation and diluted with water to the stated active compound concentrations.
(§3) The visually determined percentages of infected leaf areas were converted into efficacies in % of the untreated control:
(§4) The efficacy (E) is calculated as follows using Abbot's formula: […]
(§5) α corresponds to the fungicidal infection of the treated plants in % and β corresponds to the fungicidal infection of the untreated (control) plants in %
(§6) An efficacy of 0 means that the infection level of the treated plants corresponds to that of the untreated control plants; an efficacy of 100 means that the treated plants are not infected.
(§7) The expected efficacies of active compound combinations were determined using Colby's formula (Colby, S. R. “Calculating synergistic and antagonistic responses of herbicide combinations”, Weeds, 15, pp. 20-22, 1967) and compared with the observed efficacies.
(§8) E=x+y−x·y/100 Colby's formula • E expected efficacy, expressed in % of the untreated control, when using the mixture of the active compounds A and B at the concentrations a and b • x efficacy, expressed in % of the untreated control, when using the active compound A at the concentration a • y efficacy, expressed in % of the untreated control, when using the active compound B at the concentration b
Activity Against Early Blight of Tomato Caused by Alternaria solani
Leaves of potted tomato plants were sprayed to runoff point with an aqueous suspension having the active compound concentration stated below. The next day, the leaves were infected with an aqueous spore suspension of Alternaria solani in a 2% strength biomalt solution having a density of 0.17×10^6 spores/ml. The plants were then placed in a water vapor-saturated chamber at temperatures between 20 and 22° C. After 5 days, the disease on the untreated but infected control plants had developed to such an extent that the infection could be determined visually in %.

The subject of another assay is Botrytis cinerea. In words: Activity against gray mold on bell pepper leaves caused by Botrytis cinerea, 1 day protective application. Particulars: efficacy in % of untreated control, read after 5 days. On the procedure:
as §1, §2, §3, §4, §5, §6, §7, §8
Activity Against Gray Mold on Bell Pepper Leaves Caused by Botrytis cinerea, 1 Day Protective Application
Bell pepper seedlings of the cultivar “Neusiedler Ideal Elite” were, after 2-3 leaves were well developed, sprayed to runoff point with an aqueous suspension in the active compound concentrations stated below. The next day, the treated plants were inoculated with a spore suspension of Botrytis cinerea which comprised 1.7×10^6 spores/ml in a 2% strength aqueous biomalt solution. The test plants were then placed in a dark climatized chamber at 22 to 24° C. and high atmospheric humidity. After 5 days, the extent of the fungal infection on the leaves could be determined visually in %.

Assay [1] deals with Pyrenophora [syn. Drechslera] teres. In words: Activity against net blotch of barley caused by Pyrenophora teres, 1 day protective application. Particulars: barley seedlings, efficacy in % of untreated control, read after 6 days. On the procedure:
as §1, §2, §3, §4, §5, §6, §7, §8
Activity Against Net Blotch of Barley Caused by Pyrenophora teres, 1 Day Protective Application
Leaves of potted barley seedlings were sprayed to runoff point with an aqueous suspension having the active compound concentration stated below. 24 hours after the spray coating had dried on, the test plants were inoculated with an aqueous spore suspension of Pyrenophora [syn. Drechslera] teres, the net blotch pathogen. The test plants were then placed in a greenhouse at temperatures between 20 and 24° C. and at 95 to 100% relative atmospheric humidity. After 6 days, the extent of the development of the disease was determined visually in % infection of the entire leaf area.

Setting [2] is: single active compound 63 mg/l, efficacy in % of untreated control (Abbot).

`Cn1cc(C(=O)Nc2ccccc2-c2ccccc2C(F)(F)F)c(C(F)F)n1` [No. 40, N-(2′-trifluoromethylbiphen-2-yl)-1-methyl-3-difluoromethyl-1H-pyrazole-4-carboxamide]: the “Efficacy (% of untreated control, Abbott)” value in the assay on Alternaria solani (setting [2]) was found to be 25%. Besides, the “Efficacy (% of untreated control)” value in the assay with Botrytis cinerea (single active compound 16 mg/l) is listed as 11%; with Botrytis cinerea (single active compound 63 mg/l), 44%; in assay [1] (single active compound 4 mg/l), 18%. For `CC(C)(C)C(O)(CCc1ccc(Cl)cc1)Cn1cncn1` (centres unmarked) [tebuconazole, 1-(4-chlorophenyl)-4,4-dimethyl-3-[1,2,4]triazol-1-ylmethylpentan-3-ol], the “Efficacy (% of untreated control)” value in assay [1] (single active compound 4 mg/l) came out at 0%. Consider `Cc1cc(C)nc(Nc2ccccc2)n1` [pyrimethanil, 4,6-dimethylpyrimidin-2-ylphenylamine], for which the “Efficacy (% of untreated control)” value with Botrytis cinerea (single active compound 4 mg/l) and with Botrytis cinerea (single active compound 63 mg/l) was 0% each time. For `CO/N=C(/C(=O)OC)c1ccccc1COc1ccccc1C` [kresoximmethyl, methyl (E)-methoxyimino[α-(o-tolyloxy)-o-tolyl]acetate], the “Efficacy (% of untreated control)” value with Botrytis cinerea (single active compound 16 mg/l) and in the assay on Botrytis cinerea (single active compound 63 mg/l) was 0% in each case. As for `N#Cc1c(Cl)c(Cl)c(Cl)c(C#N)c1Cl` [chlorothalonil, 2,4,5,6-tetrachloroisophthalonitrile], in the assay on Alternaria solani (setting [2]), the “Efficacy (% of untreated control, Abbott)” value came out at 0%. The same measure, in the same setting: under “zinc ammoniate ethylenebis(dithiocarbamate) [metiram]” stands 0%. In the case of `COc1cc(C)c(C(=O)c2c(OC)ccc(Br)c2C)c(OC)c1OC` [metrafenone, 3′-bromo-2,3,4,6′-tetramethoxy-2′,6-dimethylbenzophenone], in the assay with Botrytis cinerea (single active compound 16 mg/l), the “Efficacy (% of untreated control)” value came out at 0%.

With `Fc1ccc([C@]2(Cn3cncn3)O[C@H]2c2ccccc2Cl)cc1` (racemic) [epoxiconazole, (2RS,3SR)-1-[3-(2-chlorophenyl)-2,3-epoxy-2-(4-fluorophenyl)propyl]-1H-1,2,4-triazole], the “Efficacy (% of untreated control)” value in assay [1] (single active compound 1 mg/l) stood at 0%. With `O=c1c2cc(F)ccc2nc(-n2cncn2)n1-c1ccc(Cl)cc1Cl` [fluquinconazole, 3-(2,4-dichlorophenyl)-6-fluoro-2-[1,2,4]-triazol-1-yl-3H-quinazolin-4-one], the “Efficacy (% of untreated control, Abbott)” value in the assay with Alternaria solani (single active compound 4 mg/l, efficacy in % of untreated control) is on record as 0%. In the case of `COC(=O)N(OC)c1ccccc1COc1ccn(-c2ccc(Cl)cc2)n1` [pyraclostrobin, methyl N-{2-[1-(4-chlorophenyl)-1H-pyrazol-3-yloxymethyl]phenyl}(N-methoxy)carbamate], in the assay on Botrytis cinerea (single active compound 16 mg/l), the “Efficacy (% of untreated control)” value amounted to 11%. Take `COc1ccc(C(=CC(=O)N2CCOCC2)c2ccc(Cl)cc2)cc1OC` [dimethomorph, 3-(4-chlorophenyl)-3-(3,4-dimethoxyphenyl)-1-morpholin-4-yl-propenone]: the “Efficacy (% of untreated control)” value in assay [1] (single active compound 4 mg/l) is given as 0%. Turning to `Cn1cc(C(=O)Nc2ccccc2-c2ccccc2C(F)(F)F)c(C(F)(F)F)n1` [No. 57, N-(2′-trifluoromethylbiphen-2-yl)-1-methyl-3-trifluoromethyl-1H-pyrazole-4-carboxamide], the “Efficacy (% of untreated control)” value amounted to 0% in the assay on Botrytis cinerea (single active compound 4 mg/l), 0% in the assay with Botrytis cinerea (single active compound 16 mg/l), 22% with Botrytis cinerea (single active compound 63 mg/l) and 41% in assay [1] (single active compound 16 mg/l).

The values above are taken from US20090123561A1, “Fungicide mixtures based on 1-methyl-pyrazol-4-ylcarboxanilides” (BASF AKTIENGESELLLSCHAFT, priority 2005, published 2009).
